What was measured:
Assay type in all cases: biochemical
[1] = target: Cathepsin S (Homo sapiens, UniProt P25774); test: Cathepsin S inhibition assay (fluorogenic peptide substrate); conditions: Cathepsin S inhibition constant; pH5.5; read-out: Ki Cat. S
From the text: “Inhibition constant”, Ki, is the dissociation constant of the enzyme-inhibitor complex, or the reciprocal of the binding affinity of the inhibitor to the enzyme. For classical inhibition the value of Ki is much greater than the enzyme concentration and the Ki can be measured by monitoring the rate of reaction for a competitive substrate at multiple inhibitor concentrations. The inhibited rates are then fit by nonlinear regression to the following equation: […]
The assumption being made for the classical inhibition described above is that the free inhibitor concentration is equal to the total inhibitor concentration. For inhibitors that have Ki's that are approximately equal to the enzyme concentration [E], the assumption that the free inhibitor concentration is equal to the total inhibitor concentration is no longer valid and an alternative equation has to be fit for determination of the apparent inhibition constant, Ki^app using described methods (Kuzmic, P., K. C. Elrod, et al., Anal Biochem 2000, 286(1), 45-50):
(§1) The optimal substrate for cathepsin S, acetyl-histidine-proline-valine-lysine-amino carbamoyl coumarin, was identified from screening a combinatorial library of fluorogenic peptide substrates (Harris, J. L., B. J. Backes, et al., Proc Natl Acad Sci U S A 2000, 97(14), 7754-9). Kinetic measurements are performed in a total reaction volume of 30 μl in 384-well microtiter plates. Cathepsin S, at a final concentration of 0.3-3 nM (active site), is incubated with the compounds at twelve varying concentrations in a buffer containing 100 mM NaAc (pH5.5), 1 mM EDTA, 100 mM NaCl, 0.01% Brij-35 for 20 minutes at room temperature. Control reactions in the absence of inhibitor are performed in replicates of 24. The reactions are initiated by adding the substrate, acetyl-histidine-proline-valine-lysine-amino carbamoyl coumarin, to a final concentration of 50 μM. The rate of substrate hydrolysis is measured by monitoring the increase in fluorescence at an excitation wavelength of 380 nm and an emission wavelength of 450 nm that results from cleavage of the aniline bond in the substrate by the enzyme. The apparent inhibition constants for the compounds are determined from the enzyme progress curves (Kuzmic, P., K. C. Elrod, et al., Anal Biochem 2000, 286(1), 45-50) and are then used to calculate the inhibition constants for competitive inhibitors.

[2] = target: T1, Cathepsin K (Homo sapiens, UniProt P43235); test: Cathepsin K inhibition assay, selectivity for cathepsin S over cathepsin K; conditions: ratio of cathepsin K inhibition constant to cathepsin S inhibition constant
T1 sequence (P43235 115-329): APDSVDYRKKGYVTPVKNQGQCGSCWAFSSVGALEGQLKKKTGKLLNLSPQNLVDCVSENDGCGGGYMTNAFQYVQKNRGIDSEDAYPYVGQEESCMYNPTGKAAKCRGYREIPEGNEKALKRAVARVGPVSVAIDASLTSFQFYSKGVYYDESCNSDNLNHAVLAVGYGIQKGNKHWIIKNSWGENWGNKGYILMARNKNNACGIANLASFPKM
Protocol: as §1, with “cathepsin K, acetyl-lysine-histidine-proline-lysine-amino” for “cathepsin S, acetyl-histidine-proline-valine-lysine-amino”, “Sci USA” for “Sci U S A”, “Cathepsin K,” for “Cathepsin S,”, “of 3.5” for “of 0.3-3”, “substrate, acetyl-lysine-histidine-proline-lysine-amino” for “substrate, acetyl-histidine-proline-valine-lysine-amino”, “of 40” for “of 50”
(§2) Selectivity for cathepsin S in the presence of cathepsin isozymes was determined by the ratio of the cathepsin isozyme inhibition constant of a compound of the present invention to the cathepsin S inhibition constant of the same compound. Preferred compounds of the present invention selective for cathepsin S have ratios of greater than 10. More preferred compounds of the present invention selective for cathepsin S have ratios of greater than 100. Most preferred compounds of the present invention selective for cathepsin S have ratios of greater than 1000.

[3] = target: Cathepsin L (Homo sapiens, UniProt P07711); test: Cathepsin L inhibition assay, selectivity for cathepsin S over cathepsin L; conditions: ratio of cathepsin L inhibition constant to cathepsin S inhibition constant
Protocol: The optimal substrate for cathepsin L, acetyl-histidine-lysine-phenylalanine-lysine-amino carbamoyl coumarin, was identified from screening a combinatorial library of fluorogenic peptide substrates (Harris, J. L., B. J. Backes, et al.; Proc Natl Acad Sci USA 2000, 97(14), 7754-9). Kinetic measurements are performed in a total reaction volume of 30 μl in 384-well microtiter plates. Cathepsin L, at a final concentration of 0.1 nM (active site), is incubated with the compounds at twelve varying concentrations in a buffer containing 100 mM NaAc (pH5.5), 1 mM EDTA, 100 mM NaCl, 0.01% Brij-35 for 20 minutes at room temperature. Control reactions in the absence of inhibitor are performed in replicates of 24. The reactions are initiated by adding the substrate, acetyl-histidine-lysine-phenylalanine-lysine-amino carbamoyl coumarin, to a final concentration of 20 μM. The rate of substrate hydrolysis is measured by monitoring the increase in fluorescence at an excitation wavelength of 380 nm and an emission wavelength of 450 nm that results from cleavage of the aniline bond in the substrate by the enzyme. The apparent inhibition constants for the compounds are determined from the enzyme progress curves (Kuzmic, P., K. C. Elrod, et al., Anal Biochem 2000, 286(1), 45-50) and are then used to calculate the inhibition constants for competitive inhibitors.
as §2

[4] = target: Cathepsin B (Homo sapiens, UniProt P07858); test: Cathepsin B inhibition assay, selectivity for cathepsin S over cathepsin B; conditions: ratio of cathepsin B inhibition constant to cathepsin S inhibition constant
Protocol: as §1, with “cathepsin B,” for “cathepsin S,”, “Sci US” for “Sci U S”, “Cathepsin B,” for “Cathepsin S,”, “of 1.5” for “of 0.3-3”, “of 10” for “of 50”
as §2

Cathepsin S, sequence (P25774 115-331, species assumed): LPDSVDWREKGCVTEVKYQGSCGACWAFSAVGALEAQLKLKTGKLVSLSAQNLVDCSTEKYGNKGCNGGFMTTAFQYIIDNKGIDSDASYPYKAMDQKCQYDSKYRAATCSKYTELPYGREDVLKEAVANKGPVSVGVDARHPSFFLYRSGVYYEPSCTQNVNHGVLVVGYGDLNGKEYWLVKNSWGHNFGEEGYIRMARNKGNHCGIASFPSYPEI
Cathepsin L, sequence (P07711 114-333, species assumed): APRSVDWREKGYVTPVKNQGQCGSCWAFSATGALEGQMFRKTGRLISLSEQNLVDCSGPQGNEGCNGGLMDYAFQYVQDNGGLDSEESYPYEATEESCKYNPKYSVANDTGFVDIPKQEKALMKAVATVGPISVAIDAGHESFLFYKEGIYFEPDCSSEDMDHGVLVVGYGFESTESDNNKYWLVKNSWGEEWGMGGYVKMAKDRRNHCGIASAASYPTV

SMILES	Ki [1]	Selectivity for Cat. S over Cat. K [2]	Selectivity for Cat. S over Cat. L [3]	Selectivity for Cat. S over Cat. B [4]
O=C1C[C@H](NC(=O)[C@H](CC2CCCC2)NC(=O)OC2CCOCC2)C(O)O1 (stereo partly drawn) [Example 20, (3S)-(3-Cyclopentyl-(2S)-(tetrahydro-pyran-4-yloxycarbonylamino)-propionylamino)-4-oxo-butyric acid]	< 100 nM	++ (++, >100)	++ (++, >100)	+++ (+++, >1000)
N#Cc1cccc(C(=O)N[C@@H](CC2CCCC2)C(=O)N[C@H]2CC(=O)OC2O)c1 (stereo partly drawn) [Example 18, (3S)-((2S)-(3-cyanophenyl-carbonylamino)-3-cyclopentyl-propionylamino)-4-oxo-butyric acid]	< 100 nM	++ (++, >100)	+ (+, >10)	+++ (+++, >1000)
O=C1C[C@H](NC(=O)[C@H](CC2CC2)NC(=O)C2CC2)C(O)O1 (stereo partly drawn) [Example 21, (3S)-(3-Cyclopropyl-(2S)-(cyclopropylcarbonylamino)-propionylamino)-4-oxo-butyric acid]	< 100 nM	+ (+, >10)	++ (++, >100)	++ (++, >100)
O=C1C[C@H](NC(=O)[C@H](CC2CCCCC2)NC(=O)OCc2ccccc2)C(OCc2ccccc2)O1 (stereo partly drawn) [Example 11, (3S)-[(2S)-benzyloxycarbonylamino-3-cycohexyl-propionylamino]-2-benzyloxy-5-oxo-tetrahydrofuran]	< 100 nM	+ (+, >10)	–	+ (+, >10)
O=C1C[C@H](NC(=O)[C@H](CC2CCCC2)NC(=O)c2ccc(-c3cccc(C(F)(F)F)c3)o2)C(O)O1 (stereo partly drawn) [Example 23, (3S)-(3-Cyclopentyl-(2S)-{[5-(3-trifluoromethyl-phenyl)-furan-2-carbonyl]-amino}-propionylamino)-4-oxo-butyric acid]	< 100 nM	++ (++, >100)	+++ (+++, >1000)	+++ (+++, >1000)
O=C1CC(NC(=O)C(CC2CCCC2)NC(=O)c2ccc(-c3cccc(F)c3)o2)C(OC2CCCC2)O1 [Example 26, (3S)-[3-Cyclopentyl-(2S)-{[5-(3-fluoro-phenyl)-furan-2-carbonyl]-amino}propionylamino]-2-cyclopentoxy-5-oxo-tetrahydrofuran]	< 100 nM	+ (+, >10)	+++ (+++, >1000)	+++ (+++, >1000)
O=C1C[C@H](NC(=O)[C@H](CC2CCCCC2)NC(=O)c2ccc(-c3cccc(F)c3)o2)C(O)O1 (mixture of isomers) [Example 15, (3S)-(3-Cyclohexyl-(2S)-{[5-(3-fluoro-phenyl)-furan-2-carbonyl]-amino}-propionylamino)-4-oxo-butyric acid]	< 100 nM	++ (++, >100)	++ (++, >100)	+++ (+++, >1000)
CCOC1OC(=O)C[C@@H]1NC(=O)[C@H](CC1CCCC1)NC(=O)c1ccc(-c2cccc(F)c2)o1 (stereo partly drawn) [Example 12, (3S)-[3-Cyclopentyl-(2S)-{[5-(3-fluoro-phenyl)-furan-2-carbonyl]-amino}propionylamino]-2-ethoxy-5-oxo-tetrahydrofuran]	< 100 nM	+ (+, >10)	++ (++, >100)	++ (++, >100)
CC(C)(C)C[C@H](NC(=O)C1CC1)C(=O)N[C@H]1CC(=O)OC1O (stereo partly drawn) [Example 22, (3S)-((2S)-(cyclopropylcarbonylamino)-4,4-dimethyl-pentanoylamino)-4-oxo-butyric acid]	< 100 nM	+ (+, >10)	+++ (+++, >1000)	+++ (+++, >1000)
O=C1C[C@H](NC(=O)[C@H](CC2CCCC2)NC(=O)C2CC2)C(O)O1 (stereo partly drawn) [Example 19, (3S)-(3-Cyclopentyl-(2S)-(cyclopropylcarbonylamino)-propionylamino)-4-oxo-butyric acid]	< 100 nM	++ (++, >100)	+++ (+++, >1000)	+++ (+++, >1000)
CCO[C@@H]1OC(=O)C[C@@H]1NC(=O)[C@H](CC(C)(C)C)NC(=O)OC(C)(C)C [Example 13, (3S)-[(2S)-t-butoxycarbonylamino-4,4-dimethyl-pentanoylamino]-(2R)-ethoxy-5-oxo-tetrahydrofuran]	< 1000 nM	–	+ (+, >10)	++ (++, >100)

Reference: US7297714B2, “Inhibitors of cathepsin S” (IRM LLC, priority 2003, dated 2007)
